Results: ChEMBL document CHEMBL5537206 (J Med Chem, 2024)
pIC50: −log10 of the molar value. Calls of active or inactive are those of the source. The calls are words filed in the database; no cut-off is given here.

Columns and labels:
[1] = tested on: Osimertinib-resistant NCI-H1975 cell; experiment: Antiproliferative activity against human Osimertinib-resistant NCI-H1975 cell (AZDR) incubated for 72 hrs by MTT assay; format: functional, cell-based
[2] = tested on: NCI-H1975; experiment: Antiproliferative activity against human NCI-H1975 cells incubated for 72 hrs by MTT assay; format: functional, cell-based; settings: NCI-H1975, 72 h
[3] = tested on: MCF7; experiment: Antiproliferative activity against human MCF7 cells incubated for 72 hrs by MTT assay; format: functional, cell-based; settings: MCF7, 72 h
[4] = tested on: Osimertinib-resistant NCI-H1975 cell; experiment: Induction of apoptosis in human Osimertinib-resistant NCI-H1975 cell (AZDR) assessed as early apoptotic cells at 1 uM incubated for 24 hrs by Annexin V and propidium iodide staining based flow cytometry analysis (reference value: 3.38%); format: functional
[5] = tested on: Mus musculus; experiment: In vivo inhibition of ACK1 in BALB/c nude mouse xenografted with human Osimertinib-resistant NCI-H1975 cell (AZDR) assessed as downregulation of ACK1 phosphorylation at 10 mg/kg, po measured after 22 days; format: functional, organism-based; settings: time 22.0 day
[6] = tested on: Mus musculus; experiment: In vivo inhibition of EGFR L858R/T790M mutant in BALB/c nude mouse xenografted with human Osimertinib-resistant NCI-H1975 cell (AZDR) assessed as downregulation of AKT phosphorylation at 10 mg/kg, po measured after 22 days; format: functional, organism-based; settings: time 22.0 day
[7] = tested on: Osimertinib-resistant NCI-H1975 cell; experiment: Induction of apoptosis in human Osimertinib-resistant NCI-H1975 cell (AZDR) assessed as late apoptotic cells at 1 uM incubated for 24 hrs in presence of osimertinib by Annexin V and propidium iodide staining based flow cytometry analysis (reference value: 1.06%); format: functional
[8] = tested on: Osimertinib-resistant NCI-H1975 cell; experiment: Anticancer activity against human Osimertinib-resistant NCI-H1975 cell (AZDR) xenografted in BALB/c nude mouse model assessed as increase tumor cell apoptosis at 10 mg/kg, po in presence of osimertinib by TUNEL assay; format: functional, organism-based
[9] = tested on: Mus musculus; experiment: In vivo inhibition of EGFR L858R/T790M mutant in BALB/c nude mouse xenografted with human Osimertinib-resistant NCI-H1975 cell (AZDR) assessed as downregulation of EGFR phosphorylation at 10 mg/kg, po measured after 22 days; format: functional, organism-based; settings: time 22.0 day
[10] = tested on: Osimertinib-resistant NCI-H1975 cell; experiment: Induction of apoptosis in human Osimertinib-resistant NCI-H1975 cell (AZDR) assessed as early apoptotic cells at 1 uM incubated for 24 hrs in presence of osimertinib by Annexin V and propidium iodide staining based flow cytometry analysis (reference value: 3.38%); format: functional
[11] = tested on: Osimertinib-resistant NCI-H1975 cell; experiment: Induction of apoptosis in human Osimertinib-resistant NCI-H1975 cell (AZDR) assessed as late apoptotic cells at 1 uM incubated for 24 hrs by Annexin V and propidium iodide staining based flow cytometry analysis (reference value: 1.06%); format: functional
[12] = tested on: Osimertinib-resistant NCI-H1975 cell; experiment: Anticancer activity against human Osimertinib-resistant NCI-H1975 cell (AZDR) xenografted in BALB/c nude mouse model assessed as increase in tumor cell apoptosis at 10 mg/kg, po by TUNEL assay; format: functional, organism-based
[13] = tested on: Osimertinib-resistant NCI-H1975 cell; experiment: Induction of apoptosis in human Osimertinib-resistant NCI-H1975 cell (AZDR) assessed as late apoptotic cells at 1 uM incubated for 24 hrs in presence of dasatinib by Annexin V and propidium iodide staining based flow cytometry analysis (reference value: 1.06%); format: functional
[14] = tested on: Osimertinib-resistant NCI-H1975 cell; experiment: Induction of apoptosis in human Osimertinib-resistant NCI-H1975 cell (AZDR) assessed as early apoptotic cells at 1 uM incubated for 24 hrs in presence of dasatinib by Annexin V and propidium iodide staining based flow cytometry analysis (reference value: 3.38%); format: functional
[15] = tested on: Osimertinib-resistant NCI-H1975 cell; experiment: Anticancer activity against human Osimertinib-resistant NCI-H1975 cell (AZDR) xenografted in BALB/c nude mouse model assessed as increase in tumor cell apoptosis at 10 mg/kg, po in presence of dasatinib by TUNEL assay; format: functional, organism-based

C=CC(=O)Nc1ccc(Nc2nc(Nc3cnn(C)c3)nc3ccc(Cl)cc23)cc1
pIC50 [1]: 5.13 | pIC50 [2]: 5.12 | pIC50 [3]: 5.45

C=CC(=O)Nc1cccc(Nc2nc(Nc3cnn(C)c3)nc3cccc(F)c23)c1
pIC50 [1]: 5.46 | pIC50 [2]: 5.97 | pIC50 [3]: 5.04

C=CC(=O)Nc1cccc(Nc2nc(Nc3c(C)nn(C)c3C)nc3ccc(Cl)cc23)c1
pIC50 [1]: 5.79 | pIC50 [2]: 5.54 | pIC50 [3]: 5.36

C=CC(=O)Nc1cccc(Nc2nc(Nc3ccnn3C)nc3ccc(Cl)cc23)c1
pIC50 [1]: 5.02 | pIC50 [2]: 5.37 | pIC50 [3]: 5.16

C=CC(=O)Nc1cccc(Nc2nc(Nc3cnn(C)c3)nc3cc(C(F)(F)F)ccc23)c1
pIC50 [1]: 5.58 | pIC50 [2]: 5.89 | pIC50 [3]: 5.94

C=CC(=O)Nc1cccc(Nc2nc(Nc3cnn(CC(F)(F)F)c3)nc3ccc(Cl)cc23)c1
pIC50 [1]: 5.45 | pIC50 [2]: 5.67 | pIC50 [3]: 5.17

C=CC(=O)Nc1cccc(Nc2nc(NCCn3cccn3)nc3ccc(Cl)cc23)c1
pIC50 [1]: 4.64 | pIC50 [2]: 4.99 | pIC50 [3]: 4.86

C=CC(=O)Nc1cccc(Nc2nc(Nc3ccn(C)n3)nc3ccc(Cl)cc23)c1
pIC50 [1]: 5.45 | pIC50 [2]: 5.86 | pIC50 [3]: 4.91

C=CC(=O)Nc1cccc(Nc2nc(Nc3cc(C(F)(F)F)n(C)n3)nc3ccc(Cl)cc23)c1
pIC50 [1]: 5.46 | pIC50 [2]: 5.63 | pIC50 [3]: 5.00

C=CC(=O)Nc1cccc(Nc2nc(Nc3cnn(C)c3)nc3cc(C)ccc23)c1
pIC50 [1]: 5.48 | pIC50 [2]: 5.80 | pIC50 [3]: 6.28

C=CC(=O)Nc1cccc(Nc2nc(Nc3cnn(C)c3)nc3cccc(Cl)c23)c1
pIC50 [1]: 5.61 | pIC50 [2]: 6.09 | pIC50 [3]: 5.73

C=CC(=O)Nc1cccc(Nc2nc(Nc3cnn(C)c3)nc3c(F)cccc23)c1
pIC50 [1]: 5.48 | pIC50 [2]: 5.68 | pIC50 [3]: 5.43

C=CC(=O)Nc1cccc(Nc2nc(Nc3cnn(C)c3)nc3cc(F)ccc23)c1
pIC50 [1]: 4.75 | pIC50 [2]: 5.89 | pIC50 [3]: 4.95

C=CC(=O)Nc1cccc(Nc2nc(Nc3cnn(C)c3)nc3ccc(C)cc23)c1
pIC50 [1]: 5.60 | pIC50 [2]: 5.73 | pIC50 [3]: 5.91

C=CC(=O)Nc1cccc(Nc2nc(Nc3cnn(C)c3)nc3ccc(OC)cc23)c1
pIC50 [1]: 5.33 | pIC50 [2]: 5.82 | pIC50 [3]: 5.66

C=CC(=O)Nc1cccc(Nc2nc(Nc3cnn(CCN4CCOCC4)c3)nc3ccc(Cl)cc23)c1
pIC50 [1]: 5.46 | pIC50 [2]: 5.77 | pIC50 [3]: 5.06

C=CC(=O)Nc1cccc(Nc2nc(Nc3cn(CC)nc3C)nc3ccc(Cl)cc23)c1
pIC50 [1]: 5.67 | pIC50 [2]: < 4.70 | pIC50 [3]: 4.97

C=CC(=O)Nc1cccc(Nc2nc(Nc3cnn(C)c3)nc3cc(Cl)ccc23)c1
pIC50 [1]: 4.86 | pIC50 [2]: 4.82 | pIC50 [3]: 5.53

C=CC(=O)Nc1cccc(Nc2nc(Nc3cnn(C)c3)nc3ccc(C(F)(F)F)cc23)c1
pIC50 [1]: 5.56 | pIC50 [2]: 5.81 | pIC50 [3]: 4.74

C=CC(=O)Nc1cccc(Nc2nc(Nc3cnn(C4CCOCC4)c3)nc3ccc(Cl)cc23)c1
pIC50 [1]: 5.43 | pIC50 [2]: 5.85 | pIC50 [3]: 5.54

C=CC(=O)Nc1ccccc1Nc1nc(Nc2cnn(C)c2)nc2ccc(Cl)cc12
pIC50 [1]: 5.19 | pIC50 [2]: 5.25 | pIC50 [3]: 5.37

C=CC(=O)Nc1cccc(Nc2nc(Nc3ccc(C)cc3)nc3ccc(Cl)cc23)c1
pIC50 [1]: 5.18 | pIC50 [2]: 5.64 | pIC50 [3]: 5.37

C=CC(=O)Nc1cccc(Nc2nc(Nc3cnn(Cc4ccccc4)c3)nc3ccc(Cl)cc23)c1
pIC50 [1]: 5.42 | pIC50 [2]: 5.40 | pIC50 [3]: 5.89

Cc1nc(Nc2ncc(C(=O)Nc3c(C)cccc3Cl)s2)cc(N2CCN(CCO)CC2)n1 [DASATINIB ANHYDROUS]
Activity [4]: 10.2% | inhibition [5]: Active | inhibition [6]: inactive | Activity [7]: 20.6% | Activity [8]: Active | inhibition [9]: Active | Activity [10]: 19.6% | Activity [11]: 7.4% | Activity [12]: inactive

C=CC(=O)Nc1cccc(Nc2nc(Nc3cnn(C)c3C)nc3ccc(Cl)cc23)c1
pIC50 [1]: 5.47 | pIC50 [2]: 5.99 | pIC50 [3]: 5.49

CCC(=O)Nc1cccc(Nc2nc(Nc3cnn(C)c3)nc3ccc(Cl)cc23)c1
pIC50 [1]: 5.02 | pIC50 [2]: 5.20 | pIC50 [3]: 5.33

C=CC(=O)Nc1cccc(Nc2nc(Nc3ccc(-n4cccn4)cc3)nc3ccc(Cl)cc23)c1
pIC50 [1]: 5.23 | pIC50 [2]: 5.82 | pIC50 [3]: 5.32

C=CC(=O)Nc1cccc(Nc2nc(Nc3cn(C)nc3C(F)(F)F)nc3ccc(Cl)cc23)c1
pIC50 [1]: 5.47 | pIC50 [2]: 5.99 | pIC50 [3]: 5.24

C=CC(=O)Nc1cccc(Nc2nc(Nc3ccc(N(C)CCN(C)C)cc3)nc3ccc(Cl)cc23)c1
pIC50 [1]: 5.72 | pIC50 [2]: 5.91 | pIC50 [3]: 5.60

C=CC(=O)Nc1cc(Nc2nccc(-c3cn(C)c4ccccc34)n2)c(OC)cc1N(C)CCN(C)C [OSIMERTINIB]
Activity [13]: 20.6% | Activity [4]: 2.86% | inhibition [5]: Active | inhibition [6]: inactive | pIC50 [1]: 5.40 | Activity [14]: 19.6% | Activity [15]: Active | inhibition [9]: Active | pIC50 [2]: 7.82 | pIC50 [3]: 5.94 | Activity [11]: 1.22% | Activity [12]: inactive

C=CC(=O)Nc1cccc(Nc2nc(Nc3cnn(C)c3)nc3ccccc23)c1
pIC50 [1]: 5.55 | pIC50 [2]: 6.03 | pIC50 [3]: 5.34

C=CC(=O)Nc1cccc(Nc2nc(Nc3cnn(C)c3)nc3cc(OC)ccc23)c1
pIC50 [1]: 5.60 | pIC50 [2]: 5.86 | pIC50 [3]: 5.87

C=CC(=O)Nc1cccc(Nc2nc(Nc3cnn(CCOC)c3)nc3ccc(Cl)cc23)c1
pIC50 [1]: 5.43 | pIC50 [2]: 5.50 | pIC50 [3]: 5.18

C=CC(=O)Nc1cccc(Nc2nc(Nc3cnn(C)c3)nc3c(Cl)cccc23)c1
pIC50 [1]: < 4.70 | pIC50 [2]: 5.66 | pIC50 [3]: 5.76

C=CC(=O)Nc1cccc(Nc2nc(Nc3cn[nH]c3)nc3ccc(Cl)cc23)c1
pIC50 [1]: 5.33 | pIC50 [2]: 5.59 | pIC50 [3]: 5.27

C=CC(=O)Nc1cccc(Nc2nc(Nc3cnn(-c4ccccc4)c3)nc3ccc(Cl)cc23)c1
pIC50 [1]: 5.09 | pIC50 [2]: 5.00 | pIC50 [3]: 4.82

C=CC(=O)Nc1cccc(Nc2nc(Nc3cnn(C)c3)nc3ccc(Br)cc23)c1
pIC50 [1]: 5.63 | pIC50 [2]: 5.96 | pIC50 [3]: 5.79

C=CC(=O)Nc1cccc(Nc2nc(Nc3cnn(C)c3)nc3ccc(Cl)cc23)c1
pIC50 [1]: 5.98 | pIC50 [2]: 6.02 | pIC50 [3]: 5.91

C=CC(=O)Nc1cccc(Nc2nc(Nc3ccccc3C)nc3ccc(Cl)cc23)c1
pIC50 [1]: 5.14 | pIC50 [2]: 5.18 | pIC50 [3]: 5.08

C=CC(=O)Nc1cccc(Nc2nc(Nc3cnn(C)c3)nc3ccc(F)cc23)c1
pIC50 [1]: 5.82 | pIC50 [2]: 5.06 | pIC50 [3]: 5.63

C=CC(=O)Nc1cccc(Nc2nc(Nc3cccc(Br)c3)nc3ccc(Cl)cc23)c1
pIC50 [1]: 5.55 | pIC50 [2]: 5.53 | pIC50 [3]: 5.45

C=CC(=O)Nc1cccc(Nc2nc(Nc3cn(C)nc3C)nc3ccc(Cl)cc23)c1
pIC50 [1]: < 4.70 | pIC50 [2]: 5.39 | pIC50 [3]: 4.82

C=CC(=O)Nc1cccc(Nc2nc(Nc3cccc(C)c3)nc3ccc(Cl)cc23)c1
pIC50 [1]: 5.32 | pIC50 [2]: 5.57 | pIC50 [3]: 5.11

C=CC(=O)Nc1cccc(Nc2nc(Nc3cnn(C(C)(C)C)c3)nc3ccc(Cl)cc23)c1
pIC50 [1]: 5.40 | pIC50 [2]: 5.68 | pIC50 [3]: 5.25

C=CC(=O)Nc1cccc(Nc2nc(Nc3cnn(C4CCN(C)CC4)c3)nc3ccc(Cl)cc23)c1
pIC50 [1]: 5.34 | pIC50 [2]: 5.63 | pIC50 [3]: 5.28

C=CC(=O)Nc1cccc(Nc2nc(Nc3cnn(C)c3)nc3ccc(I)cc23)c1
pIC50 [1]: 6.01 | pIC50 [2]: 6.12 | pIC50 [3]: 5.74
